Measurements taken from PubChem BioAssay (NCI).
“And” between values parts separate entries of the source, which are not always exact repeats. Equal values may be shown once.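 Where inhibition never reached the appropriate level, the endpoint shown equals the highest concentration tested. Otherwise, values were interpolated linearly from a five-concentration, 48-hour dose response in 96-well plates. Here, GI50 denotes the concentration required for 50% inhibition of growth. At the TGI there is no net growth.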 Where a SMILES comes first, the peptide text is derived from it. [ ]: non-standard residue; d: D form. The star is where a group is joined. Palmitoyl = CCCCCCCCCCCCCCCC(=O)*; Cbz = O=C(OCc1ccccc1)*; Aib = CC(C)(N)C(=O)O; OBn = c1ccc(CO*)cc1

How the values were obtained:
Experiment in all cases: inhibition of tumour cell growth, NCI panel, 48 h
SF-268 CNS = tested on: SF-268 CNS
MCF7 breast = tested on: MCF7 breast
K-562 leukemia = tested on: K-562 leukemia
COLO 205 colon = tested on: COLO 205 colon
OVCAR-4 ovarian = tested on: OVCAR-4 ovarian
SR leukemia = tested on: SR leukemia
A549 NSCLC = tested on: A549 NSCLC
NCI-H522 lung = tested on: NCI-H522 lung
IGROV1 ovarian = tested on: IGROV1 ovarian
MOLT-4 leukemia = tested on: MOLT-4 leukemia

Compound | TGI (SF-268 CNS) [µM] | TGI (MCF7 breast) [µM] | GI50 (K-562 leukemia) [µM] | TGI (K-562 leukemia) [µM] | TGI (COLO 205 colon) [µM] | GI50 (OVCAR-4 ovarian) | TGI (OVCAR-4 ovarian) [µM] | TGI (SR leukemia) [µM] | TGI (A549 NSCLC) [µM] | TGI (NCI-H522 lung) [µM] | TGI (IGROV1 ovarian) [µM] | GI50 (MOLT-4 leukemia) [µM] | TGI (MOLT-4 leukemia) [µM] | GI50 (SF-268 CNS) [µM] | GI50 (MCF7 breast) [µM] | GI50 (COLO 205 colon) [µM] | GI50 (SR leukemia) [µM] | GI50 (A549 NSCLC) [µM] | GI50 (NCI-H522 lung) [µM] | GI50 (IGROV1 ovarian) [µM]
Cc1ccc(/C=C2/N=C(N/N=C\C(O)C(O)C(O)C(O)CO)NC2=O)cc1 (stereo not drawn) | > 100 | > 100 | > 100 | > 100 | > 100 | 85.1 µM and > 100 µM and 39.2 µM | > 100 | > 100 | > 100 | > 100 | > 100 | 70.1 | > 100 |  |  |  |  |  |  | 
COc1ccc(N2C(=O)C3c4[nH]c5cc(C)ccc5c4C4CCC(C(C)(C)C)CC4C3C2=O)cc1 (stereo not drawn) | > 10 | > 10 |  | > 10 | > 10 |  | > 10 | > 10 | > 10 | > 10 | > 10 |  | > 10 |  |  |  |  |  |  | 
Clc1sc(Cl)c2c1[C@@H](Cl)C[C@@H]2Br | > 100 | > 100 |  | > 100 | > 100 |  | > 100 | 48.3 | > 100 | > 100 | > 100 |  | 43.9 |  |  |  |  |  |  | 
COc1cc2c(cc1OCCCN1C(=O)c3cccc4cccc(c34)C1=O)N=C[C@@H]1CCCN1C2=O | > 100 | > 56.7 |  | > 80.5 | 40.6 |  | > 81.4 | 25.5 | > 100 | 27.9 | 31.5 |  | > 65.4 |  |  |  |  |  |  | 
CC(NC(=O)C(C)(C)NC(=O)C(CC(=O)OCc1ccccc1)NC(=O)OCc1ccccc1)C(N)=O (stereo not drawn) (Cbz-Asp(OBn)-[Aib]-Ala-NH2; configuration not given here) | > 100 | > 100 |  | > 100 | > 100 |  | > 100 | > 100 | > 100 | > 100 | > 100 |  | > 100 |  |  |  |  |  |  | 
O=C1/C(=C/c2ccc(Cl)cc2)CCCc2ccccc21 | 30.9 | 65.8 |  | 12 | 34.9 |  | 29.5 | 37 | 60 | 26.5 | 43.3 |  | 40 |  |  |  |  |  |  | 
OCCCc1ccc2c(c1)[C@H](CO)[C@@H](c1ccc(O)cc1)O2 | > 100 | > 100 |  | > 100 | > 100 |  | 30.4 | > 100 | > 100 | > 100 | > 100 |  | > 100 |  |  |  |  |  |  | 
CO/N=C(/C(=O)OC)c1ccccc1COc1ccccc1C(F)(F)F | > 100 | > 100 |  | > 100 | > 100 |  | 57.9 | 79.2 | > 100 | 56.3 | > 100 |  | > 100 |  |  |  |  |  |  | 
COc1cc(O)c2c(=O)c(OC)c(-c3ccc(OC)c(O)c3)oc2c1 | > 100 | > 100 |  | > 100 | > 100 |  | > 100 | > 100 | > 100 | > 100 | > 100 |  | > 100 |  |  |  |  |  |  | 
COc1ccc2oc(=N)c(C(=O)Nc3ccccc3)cc2c1 | 53.9 | 33.2 |  | 4.19 | > 100 |  | > 100 | > 100 | > 100 | 6.4 | 97.4 |  | > 100 |  |  |  |  |  |  | 
O=C(CCSC1=NCCCN1)c1ccc(F)cc1 | 67.1 | 20.4 |  | 10.1 | 11.8 |  | > 100 | 13.3 | 40.3 | 3.86 | 44.4 |  | 7.27 |  |  |  |  |  |  | 
CCCCCCCCCCCCCCCC(=O)N1CCCC1C(=O)NCC(=O)NC(Cc1ccccc1)C(=O)N1CCCC1C(=O)NC(CO)C(=O)NC(Cc1ccc(O)cc1)C(=O)NC(CCCCN)C(=O)NC(CC(C)C)C(=O)NC(CCCN=C(N)N)C(=O)N1CCCC1C(=O)NCC(N)=O (stereo not drawn) (Palmitoyl-PGFPSYKLRPG-NH2; configuration not given here) | 30.6 | 35.3 | 14.3 | 38.5 | 33.3 | 30.1 µM | 81.8 | 44.9 | 35.4 | 60.3 | 48.8 | 18.6 | 37.7 | 12.4 | 15 | 10.3 | 16.5 | 17.5 | 25.1 | 18.6
CC(C)(CO)CNc1nc(N)nc(Cl)c1/C=N/O | > 100 | > 100 |  | > 100 | > 100 |  | > 100 | > 100 | > 100 | > 100 | 90.8 |  | > 100 |  |  |  |  |  |  | 
O=c1onc2n1-c1cc(Cl)ccc1C(=S)N1CSCC21 (stereo not drawn) | > 100 | > 100 |  | 63.8 | > 100 |  | > 100 | > 100 | > 100 | > 100 | > 100 |  | > 100 |  |  |  |  |  |  | 
CC(C)(C)OC(=O)NC(CSSCC(NC(=O)OC(C)(C)C)C(=O)O)C(=O)O (stereo not drawn) | > 100 | > 100 |  | > 100 | > 100 |  | > 100 | > 100 | > 100 | > 100 | > 100 |  | > 100 |  |  |  |  |  |  | 
